# Experimental data from patent US20110091945A1, “METHODS OF INCREASING BIOMASS PRODUCTIVITY, LIPID INDUCTION, AND CONTROLLING METABOLITES IN ALGAE FOR PRODUCTION OF BIOFUELS USING BIOCHEMICAL STIMULANTS” (priority 2009, published 2011).
# Values joined by “and” are separate entries in the source; they are usually repeats but may differ in a detail not shown here. Identical values can stand only once. Like-named read-outs stand apart in the source and are kept apart here.
# Key:
# Chlorella sorokiniana [1] = experiment: Malathion twelve day growth study: biomass and growth rates; format: cell-based, Chlorella sorokiniana (UTEX 2805)
# Protocol: (§1) • Analysis of growth parameters: Chlorophyll a was estimated following the method of Porra et al., (1989) Biochem. Biophys. Acta 975, 384-394. Biomass estimations were performed by filtering the cultures through pre-dried and weighed Whatman GF/C glass fiber filters (4.7 cm diameter; 1.2 μm pore size). After washing with 0.65 M ammonium formate, filters were then dried at 60° C. overnight and cooled in a desiccant pouch before re-weighing. Specific growth rates, divisions per day, and generation times were estimated based upon biomass data for days 6 to 9 and days 9 to 12 using the following equations:
# Specific growth rate (μ, d^−1)=ln(N2/N1)/(t2−t1)
# Divisions per day (Div.day^−1)=μ/ln2
# Generation time (d)=1/Div.day^−1
# Where N1 and N2=biomass at time 1 (t1) and time 2 (t2), respectively.
# (§2) • Test strain: Chlorella sorokiniana (UTEX 2805) was obtained from UTEX Culture Collections and maintained in BG11 medium (Stanier et al., (1971) Bacteria Rev. 35: 171-205, incorporated herein in its entirety). The pH of culture medium was adjusted to 7.5±0.2 before inoculation and the alga was maintained in a temperature controlled growth chamber at 25±1° C. and 100±10 μmol m^−2 s^−1 light intensity with 12/12 h L/D cycle provided by cool white fluorescent (6500 K) T-8 bulbs. • Pesticide: A twelve day time-scale growth study was conducted to evaluate the effect of pesticide toxicity on algal growth and metabolism. The pesticide malathion (Spectracide, 50% v/v) was used and added to fresh BG11 medium to obtain final concentrations of 70, 140, 280 and 560 mg of malathion L^−1 for the treatments. […] After sterilization, C. sorokiniana was added as inoculum to obtain an initial biomass concentration of 0.075 g L^−1 in all the treatments in triplicates. The cultures were incubated in the growth chamber as explained above. For each sampling period, three randomly chosen flasks of each treatment were removed and then refrigerated at 4° C. until further analysis.
# Chlorella sorokiniana [2] = experiment: Malathion twelve day growth study: chlorophyll a and chl a/b ratio; format: cell-based, Chlorella sorokiniana (UTEX 2805)
# Protocol: as §1, §2
# [3] = test system: Stigeoclonium, Tribonema, and Vaucheria; settings: 1 μg L^−1; cited from earlier work
# Anabaena = settings: cited from earlier work; for inhibition: 500 mg malathion L^−1
# algae = settings: applied alone at half solubility in water (75 mg L^−1); cited from earlier work
# [4] = T1, 70 mg malathion L^−1, day 6 to 9
# [5] = T1, 70 mg malathion L^−1, day 9 to 12
# [6] = T2, 140 mg malathion L^−1, day 6 to 9
# [7] = T2, 140 mg malathion L^−1, day 9 to 12
smiles,measurement,setting,value
"CCOC(=O)CC(SP(=S)(OC)OC)C(=O)OCC (centres unmarked) [malathion, 2-(dimethoxyphosphinothioylthio)butanedioic acid diethyl ester]",malathion concentration the alga can withstand / tolerated,Chlorella sorokiniana [1],up to 140 mg L^−1
same,time within which the alga could metabolize the pesticide and overcome the stress,Chlorella sorokiniana [1]; 70 mg malathion L^−1,≤ 6 days
same,inhibition in biomass,"Chlorella sorokiniana [1]; 70 mg malathion L^−1, day 3",25%
same,inhibition in biomass,"Chlorella sorokiniana [1]; 70 mg malathion L^−1, day 6",37%
same,inhibition in biomass,"Chlorella sorokiniana [1]; 70 mg malathion L^−1, day 9",35%
same,inhibition in biomass,"Chlorella sorokiniana [1]; 70 mg malathion L^−1, day 12",18%
same,time within which the alga could metabolize the pesticide and overcome the stress,Chlorella sorokiniana [1]; 140 mg malathion L^−1,≤ 9 days
same,inhibition of biomass,"Chlorella sorokiniana [1]; 140 mg malathion L^−1, day 3",35%
same,inhibition of biomass,"Chlorella sorokiniana [1]; 140 mg malathion L^−1, day 6",60%
same,inhibition of biomass,"Chlorella sorokiniana [1]; 140 mg malathion L^−1, day 9",68%
same,inhibition of biomass,"Chlorella sorokiniana [1]; 140 mg malathion L^−1, day 12",49%
same,"effect on growth of the alga, in words",Chlorella sorokiniana [1]; 270 mg malathion L^−1,lethal
same,"effect on growth of the alga, in words",Chlorella sorokiniana [1]; 280 mg malathion L^−1 (T3),lethal
same,inhibition of biomass,"Chlorella sorokiniana [1]; 280 mg malathion L^−1, day 3",48%
same,inhibition of biomass,"Chlorella sorokiniana [1]; 280 mg malathion L^−1, day 6",78%
same,inhibition of biomass,"Chlorella sorokiniana [1]; 280 mg malathion L^−1, day 9",89%
same,inhibition of biomass,"Chlorella sorokiniana [1]; 280 mg malathion L^−1, day 12",100%
same,"effect on growth of the alga, in words",Chlorella sorokiniana [1]; 540 mg malathion L^−1,lethal
same,"effect on growth of the alga, in words",Chlorella sorokiniana [1]; 560 mg malathion L^−1 (T4),lethal effects
same,Divisions per day,Chlorella sorokiniana [1]; [4],0.23
same,Generation time,Chlorella sorokiniana [1]; [4],4.4 days
same,Increase in biomass production,Chlorella sorokiniana [1]; [4],1.61 times
same,Specific growth rate (μ),Chlorella sorokiniana [1]; [4],0.16 day⁻¹
same,Δ Biomass,Chlorella sorokiniana [1]; [4],0.103 g/L
same,Divisions per day,Chlorella sorokiniana [1]; [5],0.27
same,Generation time,Chlorella sorokiniana [1]; [5],3.7 days
same,Increase in biomass production,Chlorella sorokiniana [1]; [5],1.8 times and 1.76 times
same,Specific growth rate (μ),Chlorella sorokiniana [1]; [5],0.19 day⁻¹
same,Δ Biomass,Chlorella sorokiniana [1]; [5],0.206 g/L
same,Divisions per day,Chlorella sorokiniana [1]; [6],0.12
same,Generation time,Chlorella sorokiniana [1]; [6],8.7 days
same,Increase in biomass production,Chlorella sorokiniana [1]; [6],1.27 times
same,Specific growth rate (μ),Chlorella sorokiniana [1]; [6],0.08 day⁻¹
same,Δ Biomass,Chlorella sorokiniana [1]; [6],0.029 g/L
same,Divisions per day,Chlorella sorokiniana [1]; [7],0.38
same,Generation time,Chlorella sorokiniana [1]; [7],2.6 days
same,Increase in biomass production,Chlorella sorokiniana [1]; [7],2.2 times and 2.20 times
same,Specific growth rate (μ),Chlorella sorokiniana [1]; [7],0.26 day⁻¹
same,Δ Biomass,Chlorella sorokiniana [1]; [7],0.163 g/L
same,ratio of chl a to chl b,"Chlorella sorokiniana [2]; 70 mg malathion L^−1, day 0",approximately 0.85
same,inhibition in chl a,"Chlorella sorokiniana [2]; 70 mg malathion L^−1, day 3",45%
same,inhibition in chl a,"Chlorella sorokiniana [2]; 70 mg malathion L^−1, day 6",49%
same,inhibition in chl a,"Chlorella sorokiniana [2]; 70 mg malathion L^−1, day 9",51%
same,inhibition in chl a,"Chlorella sorokiniana [2]; 70 mg malathion L^−1, day 12",26%
same,ratio of chl a to chl b,"Chlorella sorokiniana [2]; 70 mg malathion L^−1, day 12",approximately 0.90
same,ratio of chl a to chl b,"Chlorella sorokiniana [2]; 140 mg malathion L^−1, day 0",approximately 0.85
same,ratio of chl a to chl b,"Chlorella sorokiniana [2]; 140 mg malathion L^−1, day 12",approximately 0.90
same,decrease of chl a/b ratio,Chlorella sorokiniana [2]; 280 mg malathion L^−1,approximately 100%
same,inhibition of chlorophyll production,[3],100%
same,"resistance to malathion, in words",Anabaena; 500 mg L^−1,highly resistant
same,inhibition,Anabaena; day 5,64%
same,inhibition,Anabaena; day 30,15%
same,"toxicity to algae, in words",algae,toxic to algae
